Reference: ChEMBL document CHEMBL1201862, “PubChem BioAssay data set” (2004)
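Values below derive from 48-hour exposures of cells grown in 96-well plates, with endpoints linearly interpolated between the two concentrations bracketing the appropriate inhibition level. The concentration for 50% growth inhibition is given as GI50.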 Activity calls are given as the source filed them. No stated cut-off is given here; in the data, active = GI50 up to about 1.1 µM and inactive = higher.

Legend:
Experiment in all cases: NCI tumour cell line growth inhibition, 48 h
[1] = tested on: M14
[2] = tested on: Malme-3M
[3] = tested on: OVCAR-8
[4] = tested on: NCI-H522
[5] = tested on: HL-60
[6] = tested on: U-251
[7] = tested on: OVCAR-3
[8] = tested on: UACC-62
[9] = tested on: EKVX
[10] = tested on: A498
[11] = tested on: DMS-114
[12] = tested on: CCRF-CEM
[13] = tested on: HOP-62
[14] = tested on: NCI-H460
[15] = tested on: HOP-92
[16] = tested on: SK-OV-3
[17] = tested on: SK-MEL-2
[18] = tested on: SNB-78
[19] = tested on: HT-29
[20] = tested on: DLD-1
[21] = tested on: SF-268
[22] = tested on: RXF 393
[23] = tested on: MOLT-4
[24] = tested on: UO-31
[25] = tested on: HCC 2998
[26] = tested on: LOX IMVI
[27] = tested on: OVCAR-5
[28] = tested on: SNB-75
[29] = tested on: HCT-15
[30] = tested on: LXFL 529
[31] = tested on: DMS-273
[32] = tested on: NCI-H226
[33] = tested on: OVCAR-4
[34] = tested on: KM-20L2
[35] = tested on: SNB-19
[36] = tested on: SN12C
[37] = tested on: K562
[38] = tested on: IGROV-1
[39] = tested on: SK-MEL-5
[40] = tested on: SF-539
[41] = tested on: 786-0
[42] = tested on: SR
[43] = tested on: HCT-116
[44] = tested on: ACHN
[45] = tested on: COLO 205
[46] = tested on: SF-295
[47] = tested on: XF498
[48] = tested on: A549
[49] = tested on: SK-MEL-28
[50] = tested on: SW-620
[51] = tested on: UACC-257
[52] = tested on: M19-MEL
[53] = tested on: RPMI-8226
[54] = tested on: NCI-H23
[55] = tested on: TK-10
[56] = tested on: KM12

O=C(c1ccccc1)C1(Br)S(=O)(=O)OCCOS1(=O)=O
GI50 [1]: > 100 µM (inactive) | GI50 [2]: > 100 µM (inactive) | GI50 [3]: > 100 µM (inactive) | GI50 [4]: > 100 µM (inactive) | GI50 [5]: > 100 µM (inactive) | GI50 [6]: > 100 µM (inactive) | GI50 [7]: > 100 µM (inactive) | GI50 [8]: > 100 µM (inactive) | GI50 [9]: > 100 µM (inactive) | GI50 [10]: > 100 µM (inactive) | GI50 [11]: > 100 µM (inactive) | GI50 [12]: > 100 µM (inactive) | GI50 [13]: > 100 µM (inactive) | GI50 [14]: > 100 µM (inactive) | GI50 [15]: > 100 µM (inactive) | GI50 [16]: > 100 µM (inactive) | GI50 [17]: > 100 µM (inactive) | GI50 [18]: > 100 µM (inactive) | GI50 [19]: > 100 µM (inactive) | GI50 [20]: > 100 µM (inactive) | GI50 [21]: > 100 µM (inactive) | GI50 [22]: > 100 µM (inactive) | GI50 [23]: > 100 µM (inactive) | GI50 [24]: > 100 µM (inactive) | GI50 [25]: > 100 µM (inactive) | GI50 [26]: > 100 µM (inactive) | GI50 [27]: > 100 µM (inactive) | GI50 [28]: > 100 µM (inactive) | GI50 [29]: > 100 µM | GI50 [30]: > 100 µM (inactive) | GI50 [31]: > 100 µM (inactive) | GI50 [32]: > 100 µM (inactive) | GI50 [33]: > 100 µM (inactive) | GI50 [34]: > 100 µM (inactive) | GI50 [35]: > 100 µM (inactive) | GI50 [36]: > 100 µM (inactive) | GI50 [37]: > 100 µM (inactive) | GI50 [38]: > 100 µM (inactive) | GI50 [39]: > 100 µM (inactive) | GI50 [40]: > 100 µM (inactive) | GI50 [41]: > 100 µM (inactive) | GI50 [42]: > 100 µM (inactive) | GI50 [43]: > 100 µM (inactive) | GI50 [44]: > 100 µM (inactive) | GI50 [45]: > 100 µM (inactive) | GI50 [46]: > 100 µM (inactive) | GI50 [47]: > 100 µM (inactive) | GI50 [48]: > 100 µM (inactive) | GI50 [49]: > 100 µM (inactive) | GI50 [50]: > 100 µM (inactive) | GI50 [51]: > 100 µM (inactive) | GI50 [52]: > 100 µM (inactive) | GI50 [53]: > 100 µM (inactive) | GI50 [54]: > 100 µM (inactive) | GI50 [55]: > 100 µM (inactive)

CCCCc1c2c([n+]([O-])c3c1CCCC3)CCCC2
GI50 [1]: > 10 µM (inactive) | GI50 [2]: > 100 µM (inactive) | GI50 [56]: > 100 µM (inactive) | GI50 [3]: > 100 µM (inactive) | GI50 [4]: 2 µM (inactive) | GI50 [5]: 38.1 µM (inactive) | GI50 [6]: > 100 µM (inactive) | GI50 [7]: 31 µM (inactive) | GI50 [9]: > 100 µM (inactive) | GI50 [11]: > 100 µM (inactive) | GI50 [12]: 19.3 µM (inactive) | GI50 [13]: > 100 µM (inactive) | GI50 [14]: > 100 µM (inactive) | GI50 [16]: 98.4 µM (inactive) | GI50 [19]: > 100 µM (inactive) | GI50 [21]: 66.4 µM (inactive) | GI50 [23]: 6.59 µM (inactive) | GI50 [24]: 61.1 µM (inactive) | GI50 [25]: > 100 µM (inactive) | GI50 [26]: > 100 µM (inactive) | GI50 [29]: 21.6 µM | GI50 [30]: > 100 µM (inactive) | GI50 [31]: 96.6 µM (inactive) | GI50 [32]: > 100 µM (inactive) | GI50 [34]: > 100 µM (inactive) | GI50 [35]: 44.4 µM (inactive) | GI50 [36]: > 100 µM (inactive) | GI50 [37]: 3.56 µM (inactive) | GI50 [38]: 43.1 µM (inactive) | GI50 [39]: 28.4 µM (inactive) | GI50 [40]: > 100 µM (inactive) | GI50 [41]: > 100 µM (inactive) | GI50 [42]: 29.6 µM (inactive) | GI50 [43]: 65.2 µM (inactive) | GI50 [44]: 5.12 µM (inactive) | GI50 [45]: > 100 µM (inactive) | GI50 [46]: 28 µM (inactive) | GI50 [47]: > 100 µM (inactive) | GI50 [48]: > 100 µM (inactive) | GI50 [49]: 32.8 µM (inactive) | GI50 [50]: > 100 µM (inactive) | GI50 [51]: 40.6 µM (inactive) | GI50 [52]: 66.8 µM (inactive) | GI50 [53]: 50.8 µM (inactive) | GI50 [54]: > 100 µM (inactive) | GI50 [55]: > 100 µM (inactive)
